{"source": "patent US20120165304A1", "about": "“6,7,8,9-Tetrahydro-5H-1,4,7,10a-tetraaza-cyclohept[f]indene derivatives, pharmaceutical compositions containing these compounds, their use and processes for preparing them” (BOEHRINGER INGELHEIM INTERNATIONAL GMBH, priority 2008, published 2012)", "data": [{"target": "human 5-HT2C receptor (Homo sapiens, UniProt P28335, I156V/I160V/N158S)", "sequence (P28335 33-458 I156V/N158S/I160V limits assumed)": "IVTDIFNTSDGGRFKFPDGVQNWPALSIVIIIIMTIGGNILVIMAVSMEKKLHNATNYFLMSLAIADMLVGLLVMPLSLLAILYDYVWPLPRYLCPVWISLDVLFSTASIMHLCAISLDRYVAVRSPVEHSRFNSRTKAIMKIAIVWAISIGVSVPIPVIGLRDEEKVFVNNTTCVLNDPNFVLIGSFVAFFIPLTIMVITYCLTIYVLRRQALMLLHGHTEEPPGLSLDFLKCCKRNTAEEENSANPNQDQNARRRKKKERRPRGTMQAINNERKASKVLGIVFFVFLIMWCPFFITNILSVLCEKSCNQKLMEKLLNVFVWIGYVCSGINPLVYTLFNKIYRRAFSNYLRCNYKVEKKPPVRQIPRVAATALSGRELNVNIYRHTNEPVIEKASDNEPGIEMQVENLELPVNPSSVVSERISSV", "test": "cell-based", "units": {"EC50": "nM"}, "values": [{"molecule": "O=C(C1CN(c2c3c(nc4ccnn24)CCNCC3)C1)N1CCC(C(F)(F)F)CC1", "note": "[Example 31.83]", "EC50": 8}, {"molecule": "CC1(C)CC(NC(=O)C2CN(c3c4c(nc5ccnn35)CCNCC4)C2)CC(C)(C)N1", "note": "[Example 37.7]", "EC50": 15}, {"molecule": "CCC1CCN(C(=O)C2CN(c3c4c(nc5ccnn35)CCNCC4)C2)CC1", "note": "[Example 31.68]", "EC50": 46}, {"molecule": "CN1CCC2(CCN(C(=O)C3CN(c4c5c(nc6ccnn46)CCNCC5)C3)CC2)C1=O", "note": "[Example 31.151]", "EC50": 319}, {"molecule": "Cc1coc(C2CN(c3c4c(nc5ccnn35)CCNCC4)C2)n1", "note": "[Example 13, 10-[3-(4-Methyl-oxazol-2-yl)-azetidin-1-yl]-6,7,8,9-tetrahydro-5H-1,4,7,10a-tetraaza-cyclohepta[f]indene]", "EC50": 628}, {"molecule": "O=C(C1CN(c2c3c(nc4ccnn24)CCNCC3)C1)N1C2CCCCC1CCC2", "note": "[Example 31.158]", "EC50": 1230}, {"molecule": "COc1ccccc1OC1CN(c2c3c(nc4ccnn24)CCNCC3)C1", "note": "[Example 35.54]", "EC50": 85}, {"molecule": "O=C(C1CN(c2c3c(nc4c(Br)cnn24)CCNCC3)C1)N1CCC2(CCOC2)CC1", "note": "[Example 31.137]", "EC50": 71}, {"molecule": "O=C(C1CN(c2c3c(nc4ccnn24)CCNCC3)C1)N1CCC(c2ccc(Br)cc2)CC1", "note": "[Example 31.112]", "EC50": 131}, {"molecule": "CN(Cc1ccc(Cl)cc1)C(=O)C1CN(c2c3c(nc4c(Br)cnn24)CCNCC3)C1", "note": "[Example 31.141]", "EC50": 87}, {"molecule": "C#CCCN(CC(C)C)C(=O)C1CN(c2c3c(nc4ccnn24)CCNCC3)C1", "note": "[Example 31.106]", "EC50": 184}, {"molecule": "CN(CCc1cccc(C(F)(F)F)c1)C(=O)C1CN(c2c3c(nc4ccnn24)CCNCC3)C1", "note": "[Example 31.89]", "EC50": 133}, {"molecule": "O=C(C1CN(c2c3c(nc4ccnn24)CCNCC3)C1)N1CCC2(CCOC2)CC1", "note": "[Example 31.57]", "EC50": 37}, {"molecule": "Clc1ccccc1OC1CN(c2c3c(nc4ccnn24)CCNCC3)C1", "note": "[Example 35.3]", "EC50": 98}, {"molecule": "O=C(C1CN(c2c3c(nc4ccnn24)CCNCC3)C1)N1CC[C@@H](c2ccccc2)C1", "note": "[Example 31.223]", "EC50": 39}, {"molecule": "O=C(C1CN(c2c3c(nc4ccnn24)CCNCC3)C1)N1CCc2cc(Cl)ccc21", "note": "[Example 31.147]", "EC50": 78}, {"molecule": "CN(Cc1ccc(C(C)(C)C)cc1)C(=O)C1CN(c2c3c(nc4ccnn24)CCNCC3)C1", "note": "[Example 31.162]", "EC50": 187}, {"molecule": "CCC(C)CNC(=O)C1CN(c2c3c(nc4ccnn24)CCNCC3)C1", "note": "(stereo not shown) [Example 37.86]", "EC50": 41}, {"molecule": "Cn1c(C2CN(c3c4c(nc5ccnn35)CCNCC4)C2)nc2ccc(Cl)cc21", "note": "[Example 34.6]", "EC50": 65}, {"molecule": "C#CC1CCN(C(=O)C2CN(c3c4c(nc5ccnn35)CCN(C)CC4)C2)C1", "note": "(stereo not shown) [Example 39, (3-Ethynyl-pyrrolidin-1-yl)-[1-(7-methyl-6,7,8,9-tetrahydro-5H-1,4,7,10a-tetraaza-cyclohept[f]inden-10-yl)-azetidin-3-yl]-methanone]", "EC50": 78}, {"molecule": "O=C(NCC1CCCCC1)C1CN(c2c3c(nc4ccnn24)CCNCC3)C1", "note": "[Example 31.225]", "EC50": 111}, {"molecule": "Cc1cnn2c(N3CC(C(=O)N4CCC5(CCOC5)CC4)C3)c3c(nc12)CCNCC3", "note": "[Example 31.240]", "EC50": 29}, {"molecule": "O=C(Nc1ccccc1)C1CN(c2c3c(nc4ccnn24)CCNCC3)C1", "note": "[Example 31.16]", "EC50": 2390}, {"molecule": "c1ccc(CN2CCN(c3c4c(nc5ccnn35)CCNCC4)CC2)cc1", "note": "[Example 1.1]", "EC50": 108}, {"molecule": "CCOc1cccc(OC2CN(c3c4c(nc5ccnn35)CCNCC4)C2)c1", "note": "[Example 35.27]", "EC50": 93}, {"molecule": "CCOc1ccccc1OC1CN(c2c3c(nc4ccnn24)CCNCC3)C1", "note": "[Example 35.37]", "EC50": 47}, {"molecule": "c1ccc(CCn2c(C3CN(c4c5c(nc6ccnn46)CCNCC5)C3)nc3ccccc32)cc1", "note": "[Example 34.36]", "EC50": 353}, {"molecule": "c1cc(OC2CN(c3c4c(nc5ccnn35)CCNCC4)C2)c2ccncc2c1", "note": "[Example 35.16]", "EC50": 92}, {"molecule": "O=C(C1CN(c2c3c(nc4ccnn24)CCNCC3)C1)N1CCC(Oc2ccc(F)c(F)c2)CC1", "note": "[Example 31.146]", "EC50": 91}, {"molecule": "O=C(NC1CC2CCC1C2)C1CN(c2c3c(nc4ccnn24)CCNCC3)C1", "note": "(stereo not shown) [Example 37.84]", "EC50": 62}, {"molecule": "O=C(C1CN(c2c3c(nc4ccnn24)CCNCC3)C1)N1CCC2(CC2)C1", "note": "[Example 31.14]", "EC50": 87}, {"molecule": "FC1(F)CN(c2c3c(nc4ccnn24)CCNCC3)C1", "note": "[Example 1.4]", "EC50": 2420}, {"molecule": "CC(=O)N1CCCN(C(=O)C2CN(c3c4c(nc5ccnn35)CCNCC4)C2)CC1", "note": "[Example 37.102]", "EC50": 67}, {"molecule": "CC1CN(C(=O)C2CN(c3c4c(nc5ccnn35)CCNCC4)C2)CC(C)N1", "note": "(stereo not shown) [Example 37.13]", "EC50": 1}, {"molecule": "FC(F)(F)c1cnc(OC2CN(c3c4c(nc5ccnn35)CCNCC4)C2)c(Cl)c1", "note": "[Example 20.7]", "EC50": 424}, {"molecule": "O=C(C1CN(c2c3c(nc4ccnn24)CCNCC3)C1)N1CCN(c2ccccc2F)CC1", "note": "[Example 37.40]", "EC50": 12}, {"molecule": "CN(Cc1ccc(Cl)cc1Cl)C(=O)C1CN(c2c3c(nc4ccnn24)CCNCC3)C1", "note": "[Example 31.164]", "EC50": 111}, {"molecule": "Cn1c(C2CN(c3c4c(nc5ccnn35)CCNCC4)C2)nc2ccccc21", "note": "[Example 34.1]", "EC50": 53}, {"molecule": "O=C(NCc1ccccc1)C1CCCN(c2c3c(nc4ccnn24)CCNCC3)C1", "note": "(stereo not shown) [Example 1.22]", "EC50": 1410}, {"molecule": "Cc1cnn2c(N3CCC3)c3c(nc12)CCNCC3", "note": "[Example 27, 10-Azetidin-1-yl-3-methyl-6,7,8,9-tetrahydro-5H-1,4,7,10a-tetraaza-cyclohepta[f]indene]", "EC50": 49}, {"molecule": "CN1CCc2nc3ccnn3c(N3CC(C(=O)N4CCN(CC5CC5)CC4)C3)c2CC1", "note": "[Example 36.18]", "EC50": 77}, {"molecule": "CC(=O)N(C)C1CCN(C(=O)C2CN(c3c4c(nc5ccnn35)CCN(C)CC4)C2)CC1", "note": "[Example 36.31]", "EC50": 187}, {"molecule": "CN1CCc2nc3ccnn3c(N3CC(C(=O)NCCC4CCCC4)C3)c2CC1", "note": "[Example 36.46]", "EC50": 143}, {"molecule": "O=C(C1CN(c2c3c(nc4ccnn24)CCNCC3)C1)N1CC2CC2(c2cccs2)C1", "note": "(stereo not shown) [Example 31.231]", "EC50": 27}, {"molecule": "O=C(N1CCOCC1)C1(c2ccccc2)CCN(c2c3c(nc4ccnn24)CCNCC3)CC1", "note": "[Example 1.54]", "EC50": 1640}, {"molecule": "O=C(C1CN(c2c3c(nc4ccnn24)CCNCC3)C1)N1CCc2c(cccc2C(F)(F)F)C1", "note": "[Example 31.102]", "EC50": 36}, {"molecule": "CC1(C)CC1CNC(=O)C1CN(c2c3c(nc4ccnn24)CCNCC3)C1", "note": "(stereo not shown) [Example 37.110]", "EC50": 255}, {"molecule": "O=C(C1CN(c2c3c(nc4ccnn24)CCNCC3)C1)N1CCN(C2CCCC2)CC1", "note": "[Example 37.11]", "EC50": 2}, {"molecule": "CC(C)(O)[C@@H]1CCCN1C(=O)C1CN(c2c3c(nc4ccnn24)CCNCC3)C1", "note": "[Example 31.194]", "EC50": 2560}, {"molecule": "CCn1c(C2CN(c3c4c(nc5ccnn35)CCNCC4)C2)nc2ccccc21", "note": "[Example 34.2]", "EC50": 150}, {"molecule": "CN1CCc2nc3ccnn3c(N3CC(C(=O)N4CC[C@H]5CNC[C@H]54)C3)c2CC1", "note": "[Example 36.40]", "EC50": 283}, {"molecule": "CN1CCC2(CCN(c3c4c(nc5ccnn35)CCNCC4)CC2)C1=O", "note": "[Example 1.66]", "EC50": 1660}, {"molecule": "CN(C(=O)C1CN(c2c3c(nc4ccnn24)CCNCC3)C1)C1CCCCC1", "note": "[Example 31.179]", "EC50": 1690}, {"molecule": "O=C(NC1CCCCC1)C1CN(c2c3c(nc4ccnn24)CCNCC3)C1", "note": "[Example 37.71]", "EC50": 114}, {"molecule": "CN(C)[C@H]1CC[C@H](NC(=O)C2CN(c3c4c(nc5ccnn35)CCNCC4)C2)CC1", "note": "[Example 37.98]", "EC50": 25}, {"molecule": "Fc1cccc(OC2CN(c3c4c(nc5ccnn35)CCNCC4)C2)c1", "note": "[Example 1.9]", "EC50": 26}, {"molecule": "N#CC1CCN(C(=O)C2CN(c3c4c(nc5ccnn35)CCNCC4)C2)C1", "note": "(stereo not shown) [Example 31.159]", "EC50": 32}, {"molecule": "c1ccc(OC2CN(c3c4c(nc5ccnn35)CCNCC4)C2)cc1", "note": "[Example 1.3]", "EC50": 18}, {"molecule": "O=C(C1CN(c2c3c(nc4ccnn24)CCNCC3)C1)N1CCC(c2ccncc2)CC1", "note": "[Example 31.182]", "EC50": 9}, {"molecule": "CN1CCc2nc3ccnn3c(N3CC(C(=O)N4CCN(C5CCCC5)CC4)C3)c2CC1", "note": "[Example 36.13]", "EC50": 114}, {"molecule": "O=C(C1CN(c2c3c(nc4ccnn24)CCNCC3)C1)N1CCCCC1", "note": "[Example 31.15]", "EC50": 342}, {"molecule": "Fc1ccc(OC2CN(c3c4c(nc5ccnn35)CCNCC4)C2)cc1", "note": "[Example 1.6]", "EC50": 23}, {"molecule": "Cc1cnn2c(N3CC(C(=O)N4c5ccccc5CC4C)C3)c3c(nc12)CCNCC3", "note": "(stereo not shown) [Example 31.241]", "EC50": 84}, {"molecule": "c1ccc(OCC2CN(c3c4c(nc5ccnn35)CCNCC4)C2)nc1", "note": "[Example 15.28]", "EC50": 24}, {"molecule": "O=C(C1CN(c2c3c(nc4c(Br)cnn24)CCNCC3)C1)N1CCc2ccccc2C1", "note": "[Example 31.136]", "EC50": 78}, {"molecule": "O=C(C1CN(c2c3c(nc4ccnn24)CCNCC3)C1)N1CCCCC1c1cccnc1", "note": "(stereo not shown) [Example 31.187]", "EC50": 1010}, {"molecule": "c1ccc(Cn2c(C3CN(c4c5c(nc6ccnn46)CCNCC5)C3)nc3ccccc32)cc1", "note": "[Example 34.28]", "EC50": 188}, {"molecule": "O=C(C1CN(c2c3c(nc4ccnn24)CCNCC3)C1)N1CCC(c2ccc(Cl)cc2)CC1", "note": "[Example 31.115]", "EC50": 55}, {"molecule": "Fc1cccc(OCC2CN(c3c4c(nc5ccnn35)CCNCC4)C2)c1", "note": "[Example 15.19]", "EC50": 21}, {"molecule": "O=C(C1CN(c2c3c(nc4ccnn24)CCNCC3)C1)N1CCC2(CCCC2)CC1", "note": "[Example 31.41]", "EC50": 58}, {"molecule": "CC1CCN(C(=O)C2CN(c3c4c(nc5ccnn35)CCNCC4)C2)C1", "note": "(stereo not shown) [Example 31.124]", "EC50": 94}, {"molecule": "CN(CCC1CCCCC1)C(=O)C1CN(c2c3c(nc4ccnn24)CCNCC3)C1", "note": "[Example 31.84]", "EC50": 126}, {"molecule": "CN1CCc2nc3ccnn3c(N3CC(C(=O)N4CCC(F)(F)C4)C3)c2CC1", "note": "[Example 36.30]", "EC50": 117}, {"molecule": "C#CCCNC(=O)C1CN(c2c3c(nc4ccnn24)CCNCC3)C1", "note": "[Example 37.48]", "EC50": 141}, {"molecule": "Cc1ccc(CN(C)C(=O)C2CN(c3c4c(nc5ccnn35)CCNCC4)C2)s1", "note": "[Example 31.24]", "EC50": 53}, {"molecule": "NC1CCN(C(=O)C2CN(c3c4c(nc5ccnn35)CCNCC4)C2)CC1", "note": "[Example 37.42]", "EC50": 2}, {"molecule": "O=C(C1CN(c2c3c(nc4ccnn24)CCNCC3)C1)N1CCc2c(F)cccc2C1", "note": "[Example 31.204]", "EC50": 33}, {"molecule": "C[C@@H](NC(=O)C1CN(c2c3c(nc4ccnn24)CCNCC3)C1)C1CCCCC1", "note": "[Example 31.188]", "EC50": 101}, {"molecule": "O=C(NC1(c2ccc(F)cc2)CC1)C1CN(c2c3c(nc4ccnn24)CCNCC3)C1", "note": "[Example 31.93]", "EC50": 786}]}]}
